Activity calls are given as the source filed them. The rule behind the calls is not given here.
Experiments:
[1] = Toxicity in BALB/c mouse xenografted with human MGC-803 cells assessed as morphological change in liver at 15 mg/kg,ip administrated for 21 consecutive days by hematoxylin and eosin staining method; assay type: organism-based; details: in vivo
[2] = tested on: AGS; assay: Induction of apoptosis in human AGS cells assessed as viable cells at 1 uM incubated for 48 hrs by Annexin V-FITC/PI staining based flow cytometry method (reference value: 94.8 %); assay type: functional; details: read-out: Activity
[3] = tested on: MGC-803; assay: Antitumor activity against human MGC-803 cells xenografted in BALB/c mouse assessed as tumor growth inhibition at 5 mg/kg,ip administrated for 21 consecutive days relative to control; assay type: functional; details: read-out: TGI
[4] = tested on: AGS; assay: Induction of apoptosis in human AGS cells assessed as late apoptotic cells at 0.3 uM incubated for 48 hrs by Annexin V-FITC/PI staining based flow cytometry method (reference value: 2.46 %); assay type: functional
[5] = tested on: MGC-803; assay: Antitumor activity against human MGC-803 cells xenografted in BALB/c mouse assessed as inhibition of tumor weight at 5 to 15 mg/kg,ip administrated for 21 consecutive days; assay type: functional, organism-based; details: dose 5-15 mg/kg
[6] = tested on: MGC-803; assay: Inhibition of cell migration in human MGC-803 cells at 0.03 to 0.3 uM incubated for 48 hrs by wound healing assay based microscopic analysis; assay type: functional; details: dose 0.03-0.3 µM
[7] = molecular target: T1, Signal transducer and activator of transcription 1-alpha/beta (Homo sapiens) (UniProt P42224); assay: Inhibition of STAT1 in human AGS cells assessed as inhibition of STAT1 phosphorylation level at Tyr701 at 0.3 to 3 uM by western blot assay; assay type: cell-based; details: dose 0.3-3 µM
T1 sequence (whole entry): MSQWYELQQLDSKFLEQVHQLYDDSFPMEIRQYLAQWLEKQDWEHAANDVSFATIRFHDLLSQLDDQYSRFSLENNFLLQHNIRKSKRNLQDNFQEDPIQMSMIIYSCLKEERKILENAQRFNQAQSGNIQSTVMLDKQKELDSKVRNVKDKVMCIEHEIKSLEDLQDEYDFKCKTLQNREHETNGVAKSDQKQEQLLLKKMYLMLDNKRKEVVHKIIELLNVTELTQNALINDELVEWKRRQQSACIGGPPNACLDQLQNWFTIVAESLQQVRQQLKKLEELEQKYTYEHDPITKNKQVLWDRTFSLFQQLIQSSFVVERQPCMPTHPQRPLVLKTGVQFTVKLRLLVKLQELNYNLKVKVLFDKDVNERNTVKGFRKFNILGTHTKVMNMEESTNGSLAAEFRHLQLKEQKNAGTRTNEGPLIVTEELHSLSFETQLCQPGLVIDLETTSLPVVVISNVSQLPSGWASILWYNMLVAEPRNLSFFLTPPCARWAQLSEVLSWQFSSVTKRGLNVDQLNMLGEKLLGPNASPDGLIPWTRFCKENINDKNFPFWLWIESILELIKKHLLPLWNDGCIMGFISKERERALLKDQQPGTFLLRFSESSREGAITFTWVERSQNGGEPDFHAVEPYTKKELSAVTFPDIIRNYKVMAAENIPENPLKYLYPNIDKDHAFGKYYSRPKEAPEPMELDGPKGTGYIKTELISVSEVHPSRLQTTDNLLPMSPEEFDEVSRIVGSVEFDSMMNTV

[8] = tested on: AGS; assay: Induction of apoptosis in human AGS cells assessed as early apoptotic cells at 1 uM incubated for 48 hrs by Annexin V-FITC/PI staining based flow cytometry method (reference value: 2.38 %); assay type: functional
[9] = Toxicity in BALB/c mouse xenografted with human MGC-803 cells assessed as body weight loss at 5 mg/kg,ip administrated for 21 consecutive days; assay type: organism-based; details: in vivo
[10] = Toxicity in BALB/c mouse xenografted with human MGC-803 cells assessed as morphological change in lung at 15 mg/kg,ip administrated for 21 consecutive days by hematoxylin and eosin staining method; assay type: organism-based; details: in vivo
[11] = molecular target: Signal transducer and activator of transcription 3 (Homo sapiens) (UniProt P40763); assay: In vivo inhibition of STAT3 in BALB/c mouse xenografted with human MGC-803 cells assessed as reduction of STAT3 phosphorylation level at Tyr705 in tumor at 15 mg/kg,ip administrated for 21 consecutive days by immunohistochemistry analysis; assay type: functional, organism-based
Signal transducer and activator of transcription 3 (Homo sapiens), sequence (P40763 whole entry): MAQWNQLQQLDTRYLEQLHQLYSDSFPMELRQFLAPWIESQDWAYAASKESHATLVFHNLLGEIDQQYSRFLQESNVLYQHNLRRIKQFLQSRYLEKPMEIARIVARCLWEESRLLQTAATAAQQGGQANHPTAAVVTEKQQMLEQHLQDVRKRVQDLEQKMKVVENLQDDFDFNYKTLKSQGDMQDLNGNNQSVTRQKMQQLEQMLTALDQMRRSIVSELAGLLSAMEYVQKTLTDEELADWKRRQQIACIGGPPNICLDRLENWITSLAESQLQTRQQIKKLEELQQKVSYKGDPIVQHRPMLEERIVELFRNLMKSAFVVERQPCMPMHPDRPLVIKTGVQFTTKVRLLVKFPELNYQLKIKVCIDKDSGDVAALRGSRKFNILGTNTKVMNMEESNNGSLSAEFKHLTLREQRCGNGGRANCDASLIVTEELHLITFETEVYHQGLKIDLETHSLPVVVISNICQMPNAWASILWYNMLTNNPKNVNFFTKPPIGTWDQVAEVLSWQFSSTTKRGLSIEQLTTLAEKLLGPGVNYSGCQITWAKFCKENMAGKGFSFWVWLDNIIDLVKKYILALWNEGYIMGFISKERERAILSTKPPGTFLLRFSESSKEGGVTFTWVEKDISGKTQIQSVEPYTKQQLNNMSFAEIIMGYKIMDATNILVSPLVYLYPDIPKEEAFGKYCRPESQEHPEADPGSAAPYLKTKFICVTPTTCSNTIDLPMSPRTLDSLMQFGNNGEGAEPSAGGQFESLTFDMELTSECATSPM

[12] = molecular target: Signal transducer and activator of transcription 3 (Homo sapiens) (UniProt P40763); assay: In vivo inhibition of STAT3 in BALB/c mouse xenografted with human MGC-803 cells assessed as reduction of STAT3 phosphorylation level at Tyr705 in tumor at 5 mg/kg,ip administrated for 21 consecutive days by immunohistochemistry analysis; assay type: functional, organism-based
[13] = molecular target: Signal transducer and activator of transcription 3 (Homo sapiens) (UniProt P40763); assay: Inhibition of STAT3 in human AGS cells assessed as reduction of Mcl-1 protein expression level at 0.3 to 3 uM by western blot assay; assay type: cell-based; details: dose 0.3-3 µM
[14] = molecular target: Signal transducer and activator of transcription 3 (Homo sapiens) (UniProt P40763); assay: Inhibition of STAT3 in human AGS cells assessed as inhibition of STAT3 phosphorylation level at Tyr705 at 0.3 to 3 uM by western blot assay; assay type: cell-based; details: dose 0.3-3 µM
[15] = tested on: AGS; assay: Induction of apoptosis in human AGS cells assessed as early apoptotic cells at 0.3 uM incubated for 48 hrs by Annexin V-FITC/PI staining based flow cytometry method (reference value: 2.38 %); assay type: functional
[16] = Toxicity in BALB/c mouse xenografted with human MGC-803 cells assessed as morphological change in heart at 15 mg/kg,ip administrated for 21 consecutive days by hematoxylin and eosin staining method; assay type: organism-based; details: in vivo
[17] = tested on: MGC-803; assay: Antitumor activity against human MGC-803 cells xenografted in BALB/c mouse assessed as reduction of Ki67 expression level in tumor at 15 mg/kg,ip administrated for 21 consecutive days by immunohistochemistry analysis; assay type: functional, organism-based
[18] = tested on: MGC-803; assay: Antitumor activity against human MGC-803 cells xenografted in BALB/c mouse assessed as tumor growth inhibition at 15 mg/kg,ip administrated for 21 consecutive days relative to control; assay type: functional; details: read-out: TGI
[19] = molecular target: Signal transducer and activator of transcription 3 (Homo sapiens) (UniProt P40763); assay: In vivo inhibition of STAT3 in BALB/c mouse xenografted with human MGC-803 cells assessed as reduction of c-Myc expression in tumor at 15 mg/kg,ip administrated for 21 consecutive days by immunohistochemistry analysis; assay type: functional, organism-based
[20] = molecular target: Signal transducer and activator of transcription 3 (Homo sapiens) (UniProt P40763); assay: Inhibition of STAT3 (unknown origin) transcriptional signaling transfected in HEK293T cells at 3 uM incubated for 24 hrs by firefly luciferase gene reporter assay; assay type: cell-based
[21] = tested on: AGS; assay: Inhibition of colony formation in human AGS cells at 0.3 to 3 uM incubated for 10 to 15 days by crystal violet staining based assay; assay type: functional, cell-based; details: dose 0.3-3 µM, time 10-15 day
[22] = tested on: MGC-803; assay: Inhibition of colony formation in human MGC-803 cells at 0.3 to 3 uM incubated for 10 to 15 days by crystal violet staining based assay; assay type: functional, cell-based; details: dose 0.3-3 µM, time 10-15 day
[23] = molecular target: Signal transducer and activator of transcription 3 (Homo sapiens) (UniProt P40763); assay: In vivo inhibition of STAT3 in BALB/c mouse xenografted with human MGC-803 cells assessed as reduction of Mcl-1 expression in tumor at 5 mg/kg,ip administrated for 21 consecutive days by immunohistochemistry analysis; assay type: functional, organism-based
[24] = Metabolic stability in human liver microsomes assessed as half life; assay type: ADME, Microsome
[25] = tested on: AGS; assay: Induction of apoptosis in human AGS cells assessed as necrotic cells at 0.3 uM incubated for 48 hrs by Annexin V-FITC/PI staining based flow cytometry method (reference value: 0.32 %); assay type: functional

inhibition [7]: inactive
inhibition [11]: Active
inhibition [12]: Active
inhibition [13]: Active
inhibition [14]: Dose-Dependent Effect
inhibition [19]: Active
inhibition [20]: Active
inhibition [23]: Active
half-life [24]: 41.2 min
Structure (SMILES): Cc1cc(NC(=O)c2ccc([N+](=O)[O-])o2)ccc1-c1cnc2ccccn12
Activity [1]: Non-Toxic
viability at 1 µM [2]: 92.1%
inhibition in vivo at 5 mg/kg [3]: 47.1%
Activity [4]: 3.15%
inhibition [5]: Dose-Dependent Effect
inhibition [6]: Dose-Dependent Effect
Activity [8]: 4.52%
Activity [9]: Non-Toxic
Activity [10]: Non-Toxic
Activity [15]: 2.49%
Activity [16]: Non-Toxic
inhibition [17]: Active
inhibition in vivo at 15 mg/kg [18]: 73.4%
inhibition [21]: Dose-Dependent Effect
inhibition [22]: Dose-Dependent Effect
Activity [25]: 0.62%

Source: ChEMBL document CHEMBL5247622, “Structural optimization of Imidazo[1, 2-a]pyridine derivatives for the treatment of gastric cancer via STAT3 signaling pathway” (Eur J Med Chem, 2022)
